ChEMBL document CHEMBL1146192, “Substituted chromones and quinolones as potent melanin-concentrating hormone receptor 1 antagonists” (Bioorg Med Chem Lett, 2006)

Assays:
Format in all cases: ADME, organism-based
[1] = AUC in Sprague-Dawley rat at 10 mg/kg, po; set-up: dose 10 mg/kg, route oral; settings: plasma
[2] = Ratio of drug level in Sprague-Dawley rat brain against plasma at 2.5 mg/kg, iv and 10 mg/kg, po after 4 hrs; settings: read-out: BPR
[3] = Ratio of drug level in Sprague-Dawley rat brain against plasma at 2.5 mg/kg, iv and 10 mg/kg, po after 1 hr; settings: read-out: BPR
[4] = Oral bioavailability in Sprague-Dawley rat at 2.5 mg/kg, iv and 10 mg/kg, po; settings: in vivo
[5] = Volume of distribution in Sprague-Dawley rat at 2.5 mg/kg, iv and 10 mg/kg, po; settings: in vivo, read-out: Vdss

CN(C)[C@@H]1CCN(c2ccc(-c3coc4cc(-c5ccc(Cl)cc5)ccc4c3=O)cn2)C1.Cl
AUC [1]: 859 ng·h/mL
Kp at 4 h [2]: 25
Kp at 1 h [3]: 9.5
bioavailability [4]: 66%
Vd [5]: 58 L/kg
